This is an account of results in ChEMBL document CHEMBL1201862, “PubChem BioAssay data set” (2004).

Activity calls are given as the source filed them.

The target of one experiment is Wee1-like protein kinase (Homo sapiens, UniProt P30291). The experiment is described as follows: HeLa cell cycle G2/M accumulation – FACS, mechanism study for Wee1 degradation inhibitor project, late-stage follow-up, panel member Wee1 Degradation (AID 2088).
Experiment [1] addresses G2/mitotic-specific cyclin-B1 (Homo sapiens, UniProt P14635). The experiment is described as follows: HeLa cell cycle G2/M accumulation – FACS, mechanism study for Wee1 degradation inhibitor project, late-stage follow-up, panel member Cyclin B Degradation (AID 2088).
Experiment [2] in a line: Late stage results from the probe development effort to identify inhibitors of the protein methylesterase PME-1: Luminescence-based counterscreen assay to identify cytotoxic compounds. It counts as functional. A general note: Counterscreens check selectivity or assay interference.
Experiment [3] concerns the target Acylamino-acid-releasing enzyme (Homo sapiens, UniProt P13798). The experiment is described as follows: endogenous PME-1 and serine hydrolase inhibition – cell lysate, mouse brain cytosol, FP-rhodamine, gel ABPP, selectivity assay for PME-1 inhibitor project, dose response, panel member APEH Assay Panel member description: Inhibition of N-acylaminoacyl-peptide hydrolase (APEH) (anti-target) (AID 2366).

The nature of experiment [4]: viability loss in HEK293 cells – cell-based, plate reader, cherry-picked samples, cytotoxicity control, dose response (AID 743446). It counts as functional.
Experiment [5] can be described thus: toxicity toward HepG2 liver cells – cell-based, plate reader, cherry-pick, antagonist series, cytotoxicity control, dose response (AID 743416). It counts as functional.
Experiment [6] in a line: blockers of bursicon-stimulated LGR2 cAMP reporter – cell-based, HEK293, CRE-luciferase reporter, cherry pick, set 2, dose response (AID 743343).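 Further: transfected cells were stimulated with diluted bursicon conditioned medium after compound addition.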 It counts as functional. On the technique in general: In a reporter assay the amount or activity of a reporter protein is the signal.
A short description of experiment [7]: blockade of melanocortin 4 receptor signaling – cell-based, plate reader, cherry pick, counter-screen for LGR2 antagonist project, dose response (AID 743444).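 Further: transfected HEK 293 cells stimulated with alpha-MSH peptide; potency of inhibitors of the alpha-MSH evoked signal.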 It counts as functional.
For experiment [8], the target named is Neurotensin receptor type 1 (Homo sapiens, UniProt P30989). Type of experiment: functional.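 Further: Image-based confirmatory dose-response assay measuring agonist activity at NTR1; NTR1-expressing U2OS osteosarcoma cells imaged for beta-arrestin GFP spot formation; agonist potency where compounds increase beta-arrestin recruitment.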
Experiment [9] can be described thus: A549 cell cytotoxicity, dose response, cytotoxicity control, plate reader, cherry-pick, antagonist series (AID 743412). Type of experiment: functional, cell-based.
Experiment [10] in a line: NIH3T3 cell viability loss – ATP luminescence, mouse fibroblasts, counter-screen, dose response (AID 2010).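 Further: cells exposed to compound for about 90 hours before reading.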 It counts as functional, cell-based.
Experiment [11] can be described thus: Trypanosoma cruzi growth suppression in host cells – NIH3T3 host cells, beta-gal luminescence, confirmation (AID 2044).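 Further: intracellular parasites grown in NIH/3T3 mouse fibroblasts as host cells; luminescent beta-galactosidase reporter signal from transgenic T. cruzi replicating inside host cells; inhibitors lower the luminescence signal.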 Type of experiment: functional, cell-based.
A short description of experiment [12]: Cytotoxicity screening for potential Inhibitors of Bacterial Capsule Biogenesis. [Related pubchem assays (depositor defined):AID488970]. It counts as functional.
The next experiment concerns the target Phosphomannomutase 2 (Homo sapiens, UniProt O15305). As to the kind of experiment: Counter screen SAR assay for PMM2 inhibitors via a fluorescence intensity assay. [Related pubchem assays (depositor defined):AID1545, AID1574].
The target in experiment [13] is Phosphoethanolamine/phosphocholine phosphatase (Homo sapiens, UniProt Q8TCT1). As to the kind of experiment: SAR assay for compounds that inhibit PHOSPHO1. [Related pubchem assays (depositor defined):AID1545, AID1565, AID1574].
Experiment [14] has as its target T1, Mannose-6-phosphate isomerase (Homo sapiens, UniProt P34949).
T1 sequence (P34949 whole entry): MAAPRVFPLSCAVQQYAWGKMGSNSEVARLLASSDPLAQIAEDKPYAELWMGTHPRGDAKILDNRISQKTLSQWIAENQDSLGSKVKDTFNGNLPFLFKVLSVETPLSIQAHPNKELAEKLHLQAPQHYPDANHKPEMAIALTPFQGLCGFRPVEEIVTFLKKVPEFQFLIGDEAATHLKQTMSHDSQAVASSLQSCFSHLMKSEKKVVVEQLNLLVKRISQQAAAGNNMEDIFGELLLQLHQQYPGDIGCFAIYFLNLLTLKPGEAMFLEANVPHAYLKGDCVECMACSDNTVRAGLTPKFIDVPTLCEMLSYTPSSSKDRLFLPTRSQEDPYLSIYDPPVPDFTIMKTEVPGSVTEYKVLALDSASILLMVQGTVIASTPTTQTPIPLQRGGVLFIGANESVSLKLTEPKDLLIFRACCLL
As to the kind of experiment: phosphomannose isomerase inhibition – biochemical, fluorescence intensity, confirmation (AID 1535).

Chain of Neurotensin receptor type 1 (P30989 whole entry): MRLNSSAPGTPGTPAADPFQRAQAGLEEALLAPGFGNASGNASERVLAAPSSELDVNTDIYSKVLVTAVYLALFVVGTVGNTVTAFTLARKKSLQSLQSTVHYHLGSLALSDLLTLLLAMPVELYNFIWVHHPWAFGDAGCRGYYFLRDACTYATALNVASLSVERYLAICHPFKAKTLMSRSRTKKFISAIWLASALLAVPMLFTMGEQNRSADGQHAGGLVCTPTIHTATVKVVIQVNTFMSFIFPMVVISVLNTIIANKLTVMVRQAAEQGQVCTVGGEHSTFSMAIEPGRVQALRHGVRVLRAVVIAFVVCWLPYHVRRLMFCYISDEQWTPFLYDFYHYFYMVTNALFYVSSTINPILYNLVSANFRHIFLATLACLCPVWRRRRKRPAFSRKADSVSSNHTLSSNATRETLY
Chain of Phosphomannomutase 2 (O15305 whole entry): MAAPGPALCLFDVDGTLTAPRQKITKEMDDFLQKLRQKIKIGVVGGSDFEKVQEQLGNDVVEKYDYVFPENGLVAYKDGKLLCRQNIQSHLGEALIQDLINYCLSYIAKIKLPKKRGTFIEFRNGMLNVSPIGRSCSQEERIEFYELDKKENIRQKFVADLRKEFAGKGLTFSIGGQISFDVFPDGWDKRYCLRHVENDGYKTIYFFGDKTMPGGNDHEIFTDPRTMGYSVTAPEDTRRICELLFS
Chain of Phosphoethanolamine/phosphocholine phosphatase (Q8TCT1 whole entry): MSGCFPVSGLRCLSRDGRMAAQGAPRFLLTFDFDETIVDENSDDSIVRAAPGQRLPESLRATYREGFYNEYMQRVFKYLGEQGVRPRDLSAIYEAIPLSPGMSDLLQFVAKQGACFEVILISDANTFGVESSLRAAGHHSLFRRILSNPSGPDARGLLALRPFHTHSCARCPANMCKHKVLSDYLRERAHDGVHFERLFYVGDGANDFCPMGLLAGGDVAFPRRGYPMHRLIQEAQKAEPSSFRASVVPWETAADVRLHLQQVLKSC
Chain of Wee1-like protein kinase (P30291 whole entry): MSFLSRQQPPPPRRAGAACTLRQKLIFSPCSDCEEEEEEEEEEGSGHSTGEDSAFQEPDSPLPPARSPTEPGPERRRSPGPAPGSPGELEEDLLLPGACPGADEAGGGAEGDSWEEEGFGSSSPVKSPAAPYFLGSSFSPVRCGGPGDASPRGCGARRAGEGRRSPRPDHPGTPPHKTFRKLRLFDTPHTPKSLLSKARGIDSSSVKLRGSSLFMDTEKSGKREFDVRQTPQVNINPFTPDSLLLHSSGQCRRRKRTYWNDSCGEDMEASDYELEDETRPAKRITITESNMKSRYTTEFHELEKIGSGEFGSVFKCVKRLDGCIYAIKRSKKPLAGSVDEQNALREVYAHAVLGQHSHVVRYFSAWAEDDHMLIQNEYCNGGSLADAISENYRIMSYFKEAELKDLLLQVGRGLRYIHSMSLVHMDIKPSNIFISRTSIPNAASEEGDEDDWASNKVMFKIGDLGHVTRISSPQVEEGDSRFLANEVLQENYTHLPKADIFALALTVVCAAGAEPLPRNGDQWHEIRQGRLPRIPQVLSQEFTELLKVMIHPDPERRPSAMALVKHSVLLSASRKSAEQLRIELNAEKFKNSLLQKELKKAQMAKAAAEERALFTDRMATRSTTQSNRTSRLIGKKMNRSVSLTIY
Chain of Acylamino-acid-releasing enzyme (P13798 whole entry): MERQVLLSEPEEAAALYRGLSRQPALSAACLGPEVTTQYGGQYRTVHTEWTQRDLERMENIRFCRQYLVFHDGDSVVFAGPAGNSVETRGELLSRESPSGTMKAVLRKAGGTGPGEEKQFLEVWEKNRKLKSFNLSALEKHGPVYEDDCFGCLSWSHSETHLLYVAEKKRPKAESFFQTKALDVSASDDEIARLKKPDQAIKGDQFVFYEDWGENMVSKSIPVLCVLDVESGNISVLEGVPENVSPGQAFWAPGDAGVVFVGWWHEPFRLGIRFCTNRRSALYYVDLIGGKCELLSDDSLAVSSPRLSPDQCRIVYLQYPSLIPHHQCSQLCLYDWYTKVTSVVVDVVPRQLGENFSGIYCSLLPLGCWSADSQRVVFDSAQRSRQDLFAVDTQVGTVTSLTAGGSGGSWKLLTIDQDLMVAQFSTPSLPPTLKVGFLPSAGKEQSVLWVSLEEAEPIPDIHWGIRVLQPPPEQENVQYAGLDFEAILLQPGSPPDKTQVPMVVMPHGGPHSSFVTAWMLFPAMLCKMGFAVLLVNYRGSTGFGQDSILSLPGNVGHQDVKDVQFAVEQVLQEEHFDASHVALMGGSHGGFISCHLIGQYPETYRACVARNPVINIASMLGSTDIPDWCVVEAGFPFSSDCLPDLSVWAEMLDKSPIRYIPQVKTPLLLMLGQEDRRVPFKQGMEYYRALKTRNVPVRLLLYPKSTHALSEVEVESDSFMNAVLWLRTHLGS
Chain of G2/mitotic-specific cyclin-B1 (P14635 whole entry): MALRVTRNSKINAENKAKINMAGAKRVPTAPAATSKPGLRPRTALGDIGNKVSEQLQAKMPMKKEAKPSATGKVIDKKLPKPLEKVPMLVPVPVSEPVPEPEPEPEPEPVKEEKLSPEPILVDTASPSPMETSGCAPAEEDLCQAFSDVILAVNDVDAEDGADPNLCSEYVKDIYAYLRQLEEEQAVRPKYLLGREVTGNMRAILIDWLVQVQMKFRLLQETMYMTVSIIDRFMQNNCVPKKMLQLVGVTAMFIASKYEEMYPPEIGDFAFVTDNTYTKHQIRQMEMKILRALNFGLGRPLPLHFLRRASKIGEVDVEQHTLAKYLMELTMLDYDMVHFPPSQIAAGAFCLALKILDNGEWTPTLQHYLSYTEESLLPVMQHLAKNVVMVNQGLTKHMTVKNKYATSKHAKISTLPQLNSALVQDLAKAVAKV

In general, EC50 refers to the concentration that produces a half-maximal response. Regarding `Cc1cc(O)nc(-n2nc(C)cc2NC(=O)c2ccc(F)cc2)n1`, the half-maximal effective concentration (EC50) on Wee1-like protein kinase was > 16.6 µM (active); in [1] it was > 49.7 µM (inactive).
Usually CC50 stands for the concentration that lowers cell viability or growth by half. A word on the IC50: it is the concentration that inhibits the measured activity by half. As to `N#C/C(=C\c1cccn1S(=O)(=O)c1cccc([N+](=O)[O-])c1)S(=O)(=O)c1ccc(F)cc1`, the CC50 in experiment [2] is 100 µM (active). In addition, in experiment [3], the IC50 was > 50 µM (inactive).
For orientation: AC50 means the concentration giving half of the maximal activity seen. Take `COc1ccc2sc(-c3ccc(S(C)(=O)=O)cc3)c(C#CCO)c2c1`: the AC50 in experiment [4] is 16.8 µM (active); in [5], 24.4 µM (active); in [6], 25 µM (active); in experiment [7], 30.1 µM (active); in experiment [9] it was 10.6 µM (active). The EC50 in experiment [8] was 26.6 µM (inactive).
On to `COc1cc(/C=N/N=C(N)N)ccc1OCc1ccccc1Cl`, for which the figures for the 50% effective concentration (EC50) in experiment [10] and in [11] were > 60 µM (not active) and 0.447 µM (active), respectively. Further, the 50% cytotoxic concentration (CC50) in experiment [12] is 6.19 µM (active).
As to `O=c1c2ccccc2sn1-c1cc(S(=O)(=O)N2CCOCC2)ccc1N1CCCCC1`, the values for the IC50 (at Phosphomannomutase 2; in [13]; in experiment [14]) were > 100 µM (inactive), 39.4 µM (inactive) and 39.2 µM (active), respectively.
